Laboratory results published in ChEMBL document CHEMBL5120841, “Discovery of novel pleuromutilin derivatives as potent antibacterial agents” (2022).
Values after ≈ are worked out from the molar mass of the structure shown. Active and inactive are the calls of the source. No cut-off for these calls is given here.

Experiments:
Type in all cases: functional
Staphylococcus aureus [1] = experiment: Antibacterial activity against Staphylococcus aureus ATCC 25923 assessed as bacterial growth inhibition incubated for 18 to 24 hrs by microtiter dilution method; settings: time 18-24 hrs
Staphylococcus aureus [2] = experiment: Antibacterial activity against methicillin-resistant Staphylococcus aureus BNCC 337371 assessed as bacterial growth inhibition incubated for 18 to 24 hrs by microtiter dilution method; settings: time 18-24 hrs
Enterococcus faecalis = experiment: Antibacterial activity against Enterococcus faecalis assessed as bacterial growth inhibition incubated for 18 to 24 hrs by microtiter dilution method; settings: time 18-24 hrs
Escherichia coli = experiment: Antibacterial activity against Escherichia coli CICC 10389 assessed as bacterial growth inhibition incubated for 18 to 24 hrs by microtiter dilution method; settings: time 18-24 hrs
[3] = test system: Staphylococcus epidermidis; experiment: Antibacterial activity against methicillin-resistant Staphylococcus epidermidis ATCC 51625 assessed as bacterial growth inhibition incubated for 18 to 24 hrs by microtiter dilution method; settings: time 18-24 hrs
Bacillus subtilis = experiment: Antibacterial activity against Bacillus subtilis assessed as bacterial growth inhibition incubated for 18 to 24 hrs by microtiter dilution method; settings: time 18-24 hrs
Staphylococcus aureus [4] = experiment: Antibacterial activity against Staphylococcus aureus ATCC 25923 assessed as reduction on bacterial count at 6X MIC incubated for 24 hrs by time killing assay
Staphylococcus aureus [5] = experiment: Antibacterial activity against methicillin-resistant Staphylococcus aureus BNCC 337371 assessed as reduction on bacterial count at 6X MIC incubated for 24 hrs by time killing assay

C=C[C@]1(C)C[C@@H](OC(=O)CSC2=NC(C)=C(C(C)=O)C(C)N2)[C@]2(C)[C@H](C)CC[C@]3(CCC(=O)[C@H]32)[C@@H](C)[C@@H]1O (stereo not given in full)
MIC (Staphylococcus aureus [1]): 0.125 µg/mL (≈ 0.229 µM) | MIC (Staphylococcus aureus [2]): 0.25 µg/mL (≈ 0.459 µM) | MIC (Enterococcus faecalis): > 16 µg/mL | MIC (Escherichia coli): > 16 µg/mL | MIC [3]: 0.25 µg/mL (≈ 0.459 µM) | MIC (Bacillus subtilis): > 16 µg/mL

C=CCOC(=O)c1c(C)nc(SCC(=O)O[C@@H]2C[C@@](C)(C=C)[C@@H](O)[C@H](C)[C@]34CCC(=O)[C@H]3[C@@]2(C)[C@H](C)CC4)nc1C
MIC (Staphylococcus aureus [1]): 0.125 µg/mL (≈ 0.214 µM) | MIC (Staphylococcus aureus [2]): 1 µg/mL (≈ 1.71 µM) | MIC (Enterococcus faecalis): > 16 µg/mL | MIC (Escherichia coli): > 16 µg/mL | MIC [3]: 0.25 µg/mL (≈ 0.428 µM) | MIC (Bacillus subtilis): 4 µg/mL (≈ 6.84 µM)

C=C[C@]1(C)C[C@@H](OC(=O)CSc2nc(C)c(C(=O)OC)c(CCCC)n2)[C@]2(C)[C@H](C)CC[C@]3(CCC(=O)[C@H]32)[C@@H](C)[C@@H]1O
MIC (Staphylococcus aureus [1]): 2 µg/mL (≈ 3.33 µM) | MIC (Staphylococcus aureus [2]): 4 µg/mL (≈ 6.66 µM) | MIC (Enterococcus faecalis): > 16 µg/mL | MIC (Escherichia coli): > 16 µg/mL | MIC [3]: 0.5 µg/mL (≈ 0.832 µM) | MIC (Bacillus subtilis): > 16 µg/mL

C=C[C@]1(C)C[C@@H](OC(=O)CSC2=NC(C)=C(C(=O)OCCC)C(C)N2)[C@]2(C)[C@H](C)CC[C@]3(CCC(=O)[C@H]32)[C@@H](C)[C@@H]1O (stereo not given in full)
MIC (Staphylococcus aureus [1]): 0.25 µg/mL (≈ 0.425 µM) | MIC (Staphylococcus aureus [2]): 0.5 µg/mL (≈ 0.849 µM) | MIC (Enterococcus faecalis): > 16 µg/mL | MIC (Escherichia coli): > 16 µg/mL | MIC [3]: 0.5 µg/mL (≈ 0.849 µM) | MIC (Bacillus subtilis): > 16 µg/mL

C=C[C@]1(C)C[C@@H](OC(=O)CSC2=NC(CCCC)=C(C(=O)OC)C(C)N2)[C@]2(C)[C@H](C)CC[C@]3(CCC(=O)[C@H]32)[C@@H](C)[C@@H]1O (stereo not given in full)
MIC (Staphylococcus aureus [1]): 1 µg/mL (≈ 1.66 µM) | MIC (Staphylococcus aureus [2]): 1 µg/mL (≈ 1.66 µM) | MIC (Enterococcus faecalis): > 16 µg/mL | MIC (Escherichia coli): > 16 µg/mL | MIC [3]: 1 µg/mL (≈ 1.66 µM) | MIC (Bacillus subtilis): > 16 µg/mL

C=C[C@]1(C)C[C@@H](OC(=O)CSC2=NC(C)=C(C(=O)OC(C)CC)C(C)N2)[C@]2(C)[C@H](C)CC[C@]3(CCC(=O)[C@H]32)[C@@H](C)[C@@H]1O (stereo not given in full)
MIC (Staphylococcus aureus [1]): 0.5 µg/mL (≈ 0.829 µM) | MIC (Staphylococcus aureus [2]): 0.5 µg/mL (≈ 0.829 µM) | MIC (Enterococcus faecalis): > 16 µg/mL | MIC (Escherichia coli): > 16 µg/mL | MIC [3]: 1 µg/mL (≈ 1.66 µM) | MIC (Bacillus subtilis): > 16 µg/mL

C=C[C@]1(C)C[C@@H](OC(=O)CSc2nc(C)c(C(=O)OC)c(CC)n2)[C@]2(C)[C@H](C)CC[C@]3(CCC(=O)[C@H]32)[C@@H](C)[C@@H]1O
MIC (Staphylococcus aureus [1]): 0.0313 µg/mL (≈ 0.0546 µM) | MIC (Staphylococcus aureus [2]): 0.0625 µg/mL (≈ 0.109 µM) | MIC (Enterococcus faecalis): > 16 µg/mL | MIC (Escherichia coli): > 16 µg/mL | MIC [3]: 0.0625 µg/mL (≈ 0.109 µM) | MIC (Bacillus subtilis): 4 µg/mL (≈ 6.98 µM)

C=C[C@]1(C)C[C@@H](OC(=O)CSc2nc(C)c(C(C)=O)c(C)n2)[C@]2(C)[C@H](C)CC[C@]3(CCC(=O)[C@H]32)[C@@H](C)[C@@H]1O
MIC (Staphylococcus aureus [1]): ≤ 0.0156 µg/mL | MIC (Staphylococcus aureus [2]): ≤ 0.0156 µg/mL | Activity (Staphylococcus aureus [4]): Active | MIC (Enterococcus faecalis): > 16 µg/mL | MIC (Escherichia coli): > 16 µg/mL | MIC [3]: 0.0313 µg/mL (≈ 0.0577 µM) | MIC (Bacillus subtilis): 1 µg/mL (≈ 1.84 µM) | Activity (Staphylococcus aureus [5]): Active

C=C[C@]1(C)C[C@@H](OC(=O)CS[C@@H]2C[C@H]3CC[C@@H](C2)N3C)[C@]2(C)[C@H](C)CC[C@]3(CCC(=O)[C@H]32)[C@@H](C)[C@@H]1O [RETAPAMULIN]
MIC (Staphylococcus aureus [1]): 0.25 µg/mL (≈ 0.483 µM) | MIC (Staphylococcus aureus [2]): 0.125 µg/mL (≈ 0.241 µM) | Activity (Staphylococcus aureus [4]): 2.25 log10CFU/ml | MIC (Enterococcus faecalis): > 16 µg/mL | MIC (Escherichia coli): > 16 µg/mL | MIC [3]: 0.125 µg/mL (≈ 0.241 µM) | MIC (Bacillus subtilis): 8 µg/mL (≈ 15.5 µM) | Activity (Staphylococcus aureus [5]): 3.3 log10CFU/ml

C=C[C@]1(C)C[C@@H](OC(=O)CSc2nc(C)c(C(=O)OCCC)c(C)n2)[C@]2(C)[C@H](C)CC[C@]3(CCC(=O)[C@H]32)[C@@H](C)[C@@H]1O
MIC (Staphylococcus aureus [1]): 0.25 µg/mL (≈ 0.426 µM) | MIC (Staphylococcus aureus [2]): 0.125 µg/mL (≈ 0.213 µM) | MIC (Enterococcus faecalis): > 16 µg/mL | MIC (Escherichia coli): > 16 µg/mL | MIC [3]: 0.125 µg/mL (≈ 0.213 µM) | MIC (Bacillus subtilis): 4 µg/mL (≈ 6.82 µM)

C=CCOC(=O)C1=C(C)N=C(SCC(=O)O[C@@H]2C[C@@](C)(C=C)[C@@H](O)[C@H](C)[C@]34CCC(=O)[C@H]3[C@@]2(C)[C@H](C)CC4)NC1C (stereo not given in full)
MIC (Staphylococcus aureus [1]): 0.25 µg/mL (≈ 0.426 µM) | MIC (Staphylococcus aureus [2]): 0.25 µg/mL (≈ 0.426 µM) | MIC (Enterococcus faecalis): > 16 µg/mL | MIC (Escherichia coli): > 16 µg/mL | MIC [3]: 0.5 µg/mL (≈ 0.852 µM) | MIC (Bacillus subtilis): > 16 µg/mL
